Measurements: patent US10144708B2, “Crystalline arylalkylamine compound and process for producing the same” (MITSUBISHI TANABE PHARMA CORPORATION, priority 2013, dated 2018)

Experiments:
Format in all cases: physicochemical
[1] = Stability test: storage of Compound (A) and salts thereof, total increase in amounts of related substance; details: for Total increase in amounts of related substance (%): storage 60° C., 1 Week; for Increase in the amounts of related substance on storage (in words): storage conditions of Table 3 (60° C., Natural or 75% RH, 1 Week)
Experimental: Compound (A) and salts thereof were stored under the storage conditions described in Table 3, and the total increase in the amounts of related substance was measured.

[2] = as above; details: conditions of No. 16 of Table 3: 60° C., 75% RH, 1 Week
[3] = Determination of crystal form stable at room temperature (form A and form B suspended together in chloroform, powder X-ray diffractometry); details: equal amounts of form A and form B suspended in chloroform, stirred at room temperature overnight
Experimental: Equal amounts of the form A crystal and the form B crystal of Compound (A) were added to the same container and were suspended in chloroform. The suspension was stirred at room temperature overnight. Thereafter, the suspended matter was filtered off and was analyzed by powder X-ray diffractometry to determine the type of the crystal form.

[4] = Natural humidity, hydrochloride

## C[C@@H](N[C@H]1CCN(c2ccc(CC(=O)O)cc2)C1)c1cccc2ccccc12.Cl [Compound (A) 1.5HCl Amorphous, 4-(3S-(1R-(1-naphthyl)ethylamino)pyrrolidin-1-yl)phenylacetic acid-1.5 hydrochloride]
[1]; 75% RH, hydrochloride
  Total increase in amounts of related substance (%): 3.11%
[1]; [4]
  Total increase in amounts of related substance (%): 8.21%
[1]; listed as amorphous Compound (A).1.5 hydrochloride, hydrochloride
  Increase in the amounts of related substance on storage (in words): significantly increased

## C[C@@H](N[C@H]1CCN(c2ccc(CC(=O)O)cc2)C1)c1cccc2ccccc12.Cl [Compound (A) 1.7HCl Amorphous, 4-(3S-(1R-(1-naphthyl)ethylamino)pyrrolidin-1-yl)phenylacetic acid.1.7 hydrochloride]
[1]; 75% RH, hydrochloride
  Total increase in amounts of related substance (%): 3.06%
[1]; [4]
  Total increase in amounts of related substance (%): 8.33%
[1]; listed as amorphous Compound (A).1.7 hydrochloride, hydrochloride
  Increase in the amounts of related substance on storage (in words): significantly increased

## Br.C[C@@H](N[C@H]1CCN(c2ccc(CC(=O)O)cc2)C1)c1cccc2ccccc12 [Compound (A) 1HBr Crystal, 4-(3S-(1R-(1-naphthyl)ethylamino)pyrrolidin-1-yl)phenylacetic acid.monohydrobromide]
[1]; 75% RH
  Total increase in amounts of related substance (%): 0.13%
[1]; Natural humidity
  Total increase in amounts of related substance (%): 0.21%
[1]
  Increase in the amounts of related substance on storage (in words): increase in the amounts of related substance was observed

## C[C@@H](N[C@H]1CCN(c2ccc(CC(=O)O)cc2)C1)c1cccc2ccccc12.Cl [Compound (A) 1HCl Crystal, 4-(3S-(1R-(1-naphthyl)ethylamino)pyrrolidin-1-yl)phenylacetic acid-monohydrochloride]
[1]; 75% RH
  Total increase in amounts of related substance (%): 1.02%
[1]; Natural humidity
  Total increase in amounts of related substance (%): 0.18%
[1]; listed as Compound (A).monohydrochloride
  Increase in the amounts of related substance on storage (in words): increase in the amounts of related substance was observed

## C1CCOC1.C[C@@H](N[C@H]1CCN(c2ccc(CC(=O)O)cc2)C1)c1cccc2ccccc12.Cl [Compound (A) 1HCl•1THF Crystal, 4-(3S-(1R-(1-naphthyl)ethylamino)pyrrolidin-1-yl)phenylacetic acid.monohydrochloride.monotetrahydrofuran solvate]
[1]; 75% RH
  Total increase in amounts of related substance (%): 1.04%
[1]; Natural humidity
  Total increase in amounts of related substance (%): 0.75%
[1]
  Increase in the amounts of related substance on storage (in words): increase in the amounts of related substance was observed
[2]
  Change of solid form on storage: conversion thereof into Compound (A).monohydrochloride (crystal)

## C[C@@H](N[C@H]1CCN(c2ccc(CC(=O)O)cc2)C1)c1cccc2ccccc12 [Compound (A) Amorphous, 4-(3S-(1R-(1-naphthyl)ethylamino)pyrrolidin-1-yl)phenylacetic acid (amorphous)]
[1]; 75% RH
  Total increase in amounts of related substance (%): 14.16%
[1]; Natural humidity
  Total increase in amounts of related substance (%): 3.32%
[1]; listed as amorphous Compound (A)
  Increase in the amounts of related substance on storage (in words): significantly increased

## C[C@@H](N[C@H]1CCN(c2ccc(CC(=O)O)cc2)C1)c1cccc2ccccc12 [Compound (A) Crystal (Form A), 4-(3S-(1R-(1-naphthyl)ethylamino)pyrrolidin-1-yl)phenylacetic acid (form A crystal)]
[1]; 75% RH
  Total increase in amounts of related substance (%): 0.01%
[1]; Natural humidity
  Total increase in amounts of related substance (%): 0.03%
[1]; listed as form A crystal of Compound (A)
  Increase in the amounts of related substance on storage (in words): did not show a marked increase
[3]
  Crystal form stable at room temperature: more stable at room temperature

## C[C@@H](N[C@H]1CCN(c2ccc(CC(=O)O)cc2)C1)c1cccc2ccccc12 [Compound (A) Crystal (Form B), 4-(3S-(1R-(1-naphthyl)ethylamino)pyrrolidin-1-yl)phenylacetic acid (form B crystal)]
[1]; 75% RH
  Total increase in amounts of related substance (%): 0.00%
[1]; Natural humidity
  Total increase in amounts of related substance (%): 0.00%
[1]; listed as form B crystal of Compound (A)
  Increase in the amounts of related substance on storage (in words): did not show a marked increase
